# Laboratory results published in patent US5066654A, “2-aryl-3-heterocyclicmethyl-3H-imidazo[4,5-b]pyridines as anxiolytics and anticonvulsants” (A. H. Robins Company, Incorporated, priority 1990, dated 1991).
# “And” between values parts separate entries of the source, which are not always exact repeats. Identical values can stand only once. Like-named read-outs stand apart in the source and are kept apart here.
# Columns and labels:
# [1] = molecular target: benzodiazepine receptor; assay: inhibition of [^3 H]-flunitrazepam binding to the benzodiazepine receptor
# Description: Anxiolytic activity was evaluated in vitro according to the method of Chiu et al. [Mol. Pharmacol. 21, 57 (1982)] by determining the IC50 for the inhibition of [^3 H]-flunitrazepam binding to the benzodiazepine receptor.
# *Inhibition of [^3 Hflunitroazepam binding to the benzodiazepine
# [2] = test system: mouse; assay: exploratory light/dark test procedure (anxiolytic activity); format: in vivo
# Description: Anxiolytic activity also was evaluated in vivo in an exploratory […] test procedure [Young et al., Soc. Neurosci. Abs. 14,207 (1988) and Costall et al., Brit. J. Pharmacol. 93,985 (1988)]. Briefly, test compound was administered to a mouse which was placed in a two compartment light-dark activity monitoring box. Control animals typically move to the dark side of the box to avoid the bright light. Animals treated with anxiolytic agents spend more time exploring the lit side of the box than control animals. […]
# The following table summarizes the results of representative compounds of this invention in the light/dark exploratory test procedure for anxiolytic activity. Compounds were compared with diazepam as a reference standard at each dose level.
# [3] = test system: adult female mice; assay: MES, maximal electroshock test (electrically induced seizures); format: in vivo; conditions: Mus musculus; for responders at 100 mg/kg / responders at 31.6 mg/kg: read-out: MES (% protection)
# Description: (§1) Briefly, test compound was administered to adult female mice, followed by either electrical (60 Hz, 5 msec. pulse width […] intensity for 0.2 seconds) or chemical [Metrazole® (pentylenetetrazol)] challenge. […] Results are expressed either as percent protection at a given dose or as the ED50 for protection.
# **MES = Maximal electroshock test; results given as % protection at a
# given dose (mg/kg) or ED50 (mg/kg).
# [4] = test system: adult female mice; assay: SC-MET, subcutaneous Metrazole (pentylenetetrazol) test (chemically induced seizures); format: in vivo; conditions: for ED50: Mus musculus, sc, ED50 for protection
# Description: as §1
# ^+ SCMET = subcutaneous Metrazole ® test; results given as %
# protection at a given dose (mg/kg) or ED50 (mg/kg).
# [5] = test system: mouse; assay: loss of righting reflex test procedure (ataxia); format: in vivo
# Description: Compounds with anticonvulsant activity typically cause ataxia, an undesirable side effect, at some dose. Representative compounds of this invention were evaluated in a loss of righting reflex test procedure [A. P. Roszkowski, J. Pharmacol. Exp. Ther. 129, 75-81 (1960)]. Briefly, the compound to be evaluated was administered to a mouse which was then placed upside down in its cage. Failure to right itself within 20 seconds was considered to be loss of the righting reflex. Results are expressed as percent of mice losing righting reflex at a given dose.
# [6] = [^3 H]-flunitrazepam, in vitro, read-out: ^3 H-Flu binding IC50
smiles,measurement,setting,value
"Cc1c[nH]c(Cn2c(-c3ccc(Cl)cc3)nc3cccnc32)n1 [Example 11, 2-(4-Chlorophenyl)-3-(4-methyl-1H-imidazol-2-ylmethyl)-3H-imidazo[4,5-b]pyridine]",IC50,[1]; [6],390 nM
same,"% of Time in Lit Area, Compound",[2]; dose 1.0 mg/kg,38%
same,"% of Time in Lit Area, Compound",[2]; dose 3.16 mg/kg,40%
same,"% of Time in Lit Area, Compound",[2]; dose 10.0 mg/kg,40%
same,"% of Time in Lit Area, Compound",[2]; dose 31.6 mg/kg,53%
same,responders at 100 mg/kg,[3],0%
same,ED50,[4],16.8 mg/kg
same,% Loss of Righting Reflex,[5]; dose 100 mg/kg,0%
"Cc1ccc2nc(-c3ccc(Cl)cc3)n(Cc3ccccn3)c2n1 [Example 7, 2-(4-Chlorophenyl)-5-methyl-3-(2-pyridinylmethyl)-3H-imidazo[4,5-b]pyridine]",IC50,[1]; [6],7300 nM
same,ED50,[3]; ED50 for protection,76 mg/kg
same,ED50,[4],29.4 mg/kg
same,% Loss of Righting Reflex,[5]; dose 100 mg/kg,62.5%
"CN1C(=O)CN=C(c2ccccc2)c2cc(Cl)ccc21 [Diazepam, diazepam, reference compound]","% of Time in Lit Area, Diazepam","[2]; diazepam reference, row of dose 0.01 mg/kg",27%
same,"% of Time in Lit Area, Diazepam","[2]; diazepam reference, row of dose 0.1 mg/kg",27%
same,"% of Time in Lit Area, Diazepam","[2]; diazepam reference, row of dose 1.0 mg/kg, 1 mg/kg",28% and 26%
same,"% of Time in Lit Area, Diazepam","[2]; diazepam reference, row of dose 3.16 mg/kg, 3.16 mg/kg",26% and 27% and 28%
same,"% of Time in Lit Area, Diazepam","[2]; diazepam reference, row of dose 5.62 mg/kg",27%
same,"% of Time in Lit Area, Diazepam","[2]; diazepam reference, row of dose 10.0 mg/kg, 10 mg/kg",26% and 28%
same,"sedation, Diazepam","[2]; diazepam reference, row of dose 17.8 mg/kg",sedation
same,"% of Time in Lit Area, Diazepam","[2]; diazepam reference, row of dose 31.6 mg/kg, 31.6 mg/kg",28% and 26%
same,"% of Time in Lit Area, Diazepam (additional result)","[2]; dose of 10 mg/kg, additional result in footnote",28%
"Cc1ccc(-c2nc3cccnc3n2Cc2ncc[nH]2)cc1 [Example 9, 3-(1H-Imidazol-2-ylmethyl)-2-(4-methylphenyl)-3H-imidazo[4,5-b]pyridine]",IC50,[1]; [6],140 nM
same,responders at 31.6 mg/kg,[3],0%
same,ED50,[4],15.4 mg/kg
"Cc1ccc(-c2nc3ccc(Cl)nc3n2Cc2ncc[nH]2)cc1 [Example 5, 5-Chloro-3-(1H-imidazol-2-ylmethyl)-2-(4-methylphenyl)-3H-imidazo[4,5-b]pyridine]",IC50,[1]; [6],300 nM
same,responders at 100 mg/kg,[3],0%
same,ED50,[4],6.92 mg/kg
same,% Loss of Righting Reflex,[5]; dose 100 mg/kg,0%
"Clc1ccc(-c2nc3ccc(Cl)nc3n2Cc2ccccn2)cc1 [Example 3, 5-Chloro-2-(4-chlorophenyl)-3-(2-pyridinylmethyl)-3H-imidazo[4,5-b]pyridine]",IC50,[1]; [6],3300 nM
same,responders at 100 mg/kg,[3],0%
same,SC-MET (% protection),[4]; dose 100 mg/kg,62.5%
same,% Loss of Righting Reflex,[5]; dose 100 mg/kg,0%
"Cc1ccc(-c2nc3cccnc3n2Cc2ccccn2)cc1 [Example 2, 2-(4-Methylphenyl)-3-(2-pyridinylmethyl)-3H-imidazo[4,5-b]pyridine]",IC50,[1]; [6],3100 nM
same,responders at 100 mg/kg,[3],25%
same,ED50,[4],48.7 mg/kg
same,% Loss of Righting Reflex,[5]; dose 100 mg/kg,0%
"Clc1ccc(-c2nc3ccc(Cl)nc3n2Cc2ncc[nH]2)cc1 [Example 10, 5-Chloro-2-(4-chlorophenyl)-3-(1H-imidazol-2-ylmethyl)-3H-imidazo[4,5-b]pyridine]",IC50,[1]; [6],130 nM
same,IC50,"[1]; obtained on reevaluation, read-out: ^3 H-Flu binding IC50 (reevaluation)",160 nM
same,"% of Time in Lit Area, Compound",[2]; dose 0.01 mg/kg,35%
same,"% of Time in Lit Area, Compound",[2]; dose 0.1 mg/kg,37%
same,"% of Time in Lit Area, Compound",[2]; dose 3.16 mg/kg,49%
same,"% of Time in Lit Area, Compound",[2]; dose 5.62 mg/kg,49%
same,"% of Time in Lit Area, Compound",[2]; dose 10.0 mg/kg,40%
same,"% of Time in Lit Area, Compound (additional result)","[2]; dose 10 mg/kg, additional result in footnote",38%
same,"sedation, Compound","[2]; mouse, in vivo, 17.8 mg/kg",sedation
same,ED50,[4],8.6 mg/kg
same,% Loss of Righting Reflex,[5]; dose 100 mg/kg,0%
"Cc1ccc(-c2nc3ccc(Cl)nc3n2Cc2ccccn2)cc1 [Example 4, 5-Chloro-2-(4-methylphenyl)-3-(2-pyridinylmethyl)-3H-imidazo[4,5-b]pyridine]",IC50,[1]; [6],1600 nM
same,ED50,[4],38.8 mg/kg
same,% Loss of Righting Reflex,[5]; dose 100 mg/kg,0%
"Clc1ccc(-c2nc3cccnc3n2Cc2ccccn2)cc1 [Example 1, 2-(4-Chlorophenyl)-3-(2-pyridinylmethyl)-3H-imidazo[4,5-b]pyridine]",IC50,[1]; [6],7000 nM
same,responders at 100 mg/kg,[3],0%
same,SC-MET (% protection),[4]; dose 100 mg/kg,37.5%
same,% Loss of Righting Reflex,[5]; dose 100 mg/kg,0%
"Cc1ccc(-c2nc3ccc(C)nc3n2Cc2ccccn2)cc1 [Example 6, 5-Methyl-2-(4-methylphenyl)-3-(2-pyridinylmethyl)-3H-imidazo[4,5-b]pyridine]",IC50,[1]; [6],3900 nM
same,"% of Time in Lit Area, Compound",[2]; dose 3.16 mg/kg,36%
same,"% of Time in Lit Area, Compound",[2]; dose 10.0 mg/kg,38%
same,responders at 100 mg/kg,[3],12.5%
same,ED50,[4],38.1 mg/kg
same,% Loss of Righting Reflex,[5]; dose 100 mg/kg,0%
Cc1ccc(-c2nc3cccnc3n2Cc2nc(C)c[nH]2)cc1 [Example 12],IC50,[1]; [6],220 nM
same,"% of Time in Lit Area, Compound",[2]; dose 1.0 mg/kg,38%
same,"% of Time in Lit Area, Compound",[2]; dose 3.16 mg/kg,40%
same,"% of Time in Lit Area, Compound",[2]; dose 10.0 mg/kg,51%
same,"% of Time in Lit Area, Compound",[2]; dose 31.6 mg/kg,48%
same,responders at 100 mg/kg,[3],0%
same,ED50,[4],14.8 mg/kg
same,% Loss of Righting Reflex,[5]; dose 100 mg/kg,0%
"Clc1ccc(-c2nc3cccnc3n2Cc2ncc[nH]2)cc1 [Example 8, 2-(4-Chlorophenyl)-3-(1H-imidazol-2-ylmethyl)-3H-imidazo[4,5-b]pyridine]",IC50,[1]; [6],410 nM
same,responders at 31.6 mg/kg,[3],0%
same,SC-MET (% protection),[4]; dose 31.6 mg/kg,0%
same,% Loss of Righting Reflex,[5]; dose 31.6 mg/kg,0%
